This note sets out measurements from ChEMBL document CHEMBL4819080, “Cannabidiol-dihydroartemisinin conjugates for ameliorating neuroinflammation with reduced cytotoxicity” (Bioorg Med Chem, 2021).

The source made the active and inactive calls. No cut-off for these calls is given here.

Data set [1] deals with BV-2. In words: Antiinflammatory activity in mouse BV-2 cells assessed as reduction in LPS-induced iNOS mRNA expression at 100 uM incubated for 6 hrs by qRT-PCR analysis. It counts as functional, cell-based. (In general: Quantitative PCR measures a nucleic acid by following its amplification.)
The test system of data set [2] is BV-2. In words: Antiinflammatory activity in mouse BV-2 cells assessed as reduction in LPS-induced nitric oxide production incubated for 24 hrs by 2, 3-diaminonaphthalene based assay. The data set is classed as functional, cell-based.
In data set [3] the test system is BV-2. Kind of data set: Cytotoxicity against mouse BV-2 cells assessed as reduction in cell viability upto 200 uM incubated for 24 hrs by crystal violet dye based assay. The conditions noted are these: bv-2, 24 h.
Data set [4] has as its system BV-2. Kind of data set: Antiinflammatory activity in mouse BV-2 cells assessed as reduction in LPS-induced IL-1beta mRNA expression at 100 uM incubated for 6 hrs by qRT-PCR analysis. The data set is classed as functional, cell-based.
Data set [5] deals with BV-2. Kind of data set: Cytotoxicity against mouse BV-2 cells assessed as reduction in cell viability incubated for 24 hrs in presence of DHA by crystal violet dye based assay. The note with it: bv-2, 24 h.
Data set [6] relates to BV-2. Kind of data set: Antiinflammatory activity in mouse BV-2 cells assessed as reduction in LPS-induced nitric oxide production incubated for 24 hrs in presence of DHA by 2, 3-diaminonaphthalene based assay. It counts as functional, cell-based.
The subject of data set [7] is BV-2. In words: Cytotoxicity against mouse BV-2 cells assessed as reduction in cell viability incubated for 24 hrs by crystal violet dye based assay. The note with it: BV-2, 24 h.
The subject of data set [8] is BV-2. In words: Inhibition of LPS-induced MAPK activation in mouse BV-2 cells assessed as reduction in JNK phosphorylation at 100 uM incubated for 1 hr by Western blot analysis. It counts as cell-based.
The subject of data set [9] is BV-2. Kind of data set: Antiinflammatory activity in mouse BV-2 cells assessed as reduction in LPS-induced iNOS mRNA expression incubated for 6 hrs by qRT-PCR analysis. It counts as functional, cell-based. The note with it: dose 20-100 µM.
The test system of data set [10] is BV-2. In words: Inhibition of LPS-induced MAPK activation in mouse BV-2 cells assessed as reduction in p38 phosphorylation at 100 uM incubated for 1 hr by Western blot analysis. It counts as cell-based. A general note: In western blotting, separated proteins are transferred to a membrane and probed.
In data set [11] the test system is BV-2. In words: Inhibition of LPS-induced NF-kappaB activation in mouse BV-2 cells assessed as reduction in NF-kappaB p65 phosphorylation at 100 uM incubated for 1 hr by Western blot analysis. The data set is classed as cell-based.
The test system of data set [12] is BV-2. Kind of data set: Inhibition of LPS-induced NF-kappaB activation in mouse BV-2 cells assessed as reduction in IKKalpha/beta phosphorylation at 100 uM incubated for 1 hr by Western blot analysis. The data set is classed as cell-based.
For data set [13], the system named is BV-2. In words: Inhibition of LPS-induced NF-kappaB activation in mouse BV-2 cells expressing luciferase gene at 5 to 100 uM incubated for 24 hrs by steady-glo luciferase assay. It counts as cell-based. The conditions noted are these: dose 5-100 µM.
Data set [14] has as its system BV-2. In words: Antiinflammatory activity in mouse BV-2 cells assessed as reduction in LPS-induced IL-1beta mRNA expression incubated for 6 hrs by qRT-PCR analysis. The conditions noted are these: dose 20-100 µM. It counts as functional, cell-based.
Data set [15] concerns BV-2. In words: Inhibition of LPS-induced NF-kappaB activation in mouse BV-2 cells assessed as reduction in IRAK1 phosphorylation at 100 uM incubated for 1 hr by Western blot analysis. The data set is classed as cell-based.
Data set [16] deals with BV-2. In words: Inhibition of LPS-induced MAPK activation in mouse BV-2 cells assessed as reduction in ERK phosphorylation at 100 uM incubated for 1 hr by Western blot analysis. It counts as cell-based.
The mark [17] stands for this setting: Mus musculus, BV-2, 24 h, read-out: IC50.

For `C=C(C)[C@@H]1CCC(C)=C[C@H]1c1c(O)cc(CCCCC)cc1OCCCCO[C@H]1O[C@@H]2O[C@]3(C)CC[C@H]4[C@H](C)CC[C@@H]([C@H]1C)[C@@]24OO3`, the inhibition entry in the data set with BV-2 [1] and with BV-2 [4] was “inactive” in each case. For the same compound, the IC50 (as a rule, the concentration that inhibits the measured activity by half) with BV-2 [2] (bv-2) was “Not Active”. Also, the Activity entry in the data set on BV-2 [3] is reported as “Non-Toxic”.
Turning to `C=C(C)[C@@H]1CCC(C)=C[C@H]1c1c(O)cc(CCCCC)cc1O` [CANNABIDIOL], the Activity result in the data set with BV-2 [5] was “Toxic”. In addition, the IC50 stood at 10.3 µM in the data set on BV-2 [2] (setting [17]) and 8 µM with BV-2 [7]. The inhibition entry in the data set with BV-2 [6] was “Active”.
Turning to `C=C(C)[C@@H]1CCC(C)=C[C@H]1c1c(O)cc(CCCCC)cc1OCCCO[C@H]1O[C@@H]2O[C@]3(C)CC[C@H]4[C@H](C)CC[C@@H]([C@H]1C)[C@@]24OO3`, the inhibition result with BV-2 [8], in the data set with BV-2 [10] and in the data set on BV-2 [16] was “inactive” each time. Also, the inhibition entry in the data set with BV-2 [9], in the data set with BV-2 [2] and in the data set with BV-2 [14] was “Dose-Dependent Effect” in each case. Further, the inhibition entry in the data set with BV-2 [11], in the data set on BV-2 [12], in the data set with BV-2 [13] and in the data set on BV-2 [15] was “Active” in each case. Moreover, the IC50 in the data set with BV-2 [2] (setting [17]) came out at 11.7 µM. For the same compound, the Activity entry in the data set on BV-2 [3] is listed as “Non-Toxic”.
Consider `C[C@H]1[C@@H](O)O[C@@H]2O[C@@]3(C)CC[C@H]4[C@H](C)CC[C@@H]1[C@@]24OO3` [ARTENIMOL], for which the IC50 is 7.4 µM in the data set on BV-2 [2] (setting [17]) and 120 µM in the data set with BV-2 [7].
As to `C=C(C)[C@@H]1CCC(C)=C[C@H]1c1c(O)cc(CCCCC)cc1OCCO[C@H]1O[C@@H]2O[C@]3(C)CC[C@H]4[C@H](C)CC[C@@H]([C@H]1C)[C@@]24OO3`, the inhibition entry with BV-2 [1] and in the data set on BV-2 [4] was “inactive” throughout. Also, in the data set with BV-2 [2], the inhibition entry was “Dose-Dependent Effect”. Besides, in the data set with BV-2 [2] (setting [17]), the IC50 worked out at 55 µM. Also, the Activity entry in the data set with BV-2 [3] is on record as “Non-Toxic”.
